Data taken from US12146874B2, “Microtentacle imaging in patient tumor samples” (University of Maryland, Baltimore, priority 2014, dated 2024).

Legend:
[1] = system: fresh patient tumor cells and tumorgrafts; experiment: McTN drug response of fresh patient samples and tumorgrafts in the microfluidic device (Aim 3b); conditions: concentration listed in Table 4, 60 minutes, media exchange in microfluidic channels
Description: An automated microscope stage will collect images from each channel every 5 minutes across the one hour drug treatment.
Strategy and Analysis: The device prioritized from subaim 2a will be used to analyze fresh patient samples as well as the resulting tumorgrafts from 40 patients during the three years of the project. McTN images collected from each cell sample will be analyzed with a custom MatLab algorithm developed for this assay that can automatically identify McTNs but also score metrics that were previously not possible to measure, such as the average number of McTNs per cell (FIG. 12). […] Drugs will be added by media exchange across the six microfluidic channels at the concentrations listed in Table 4 for 60 minutes, which each affect McTNs in 1 hr.

patient-derived cells = experiment: McTN and stem cell responses of patient-derived cells to drugs (Example 4); type: cell-based, human; conditions: concentration listed in Table 2, 30 minutes, vs vehicle 0.1% DMSO
Description: Patient-derived cells are treated with either vehicle (0.1% DMSO) or each of the drugs in Table 2 at the indicated concentration for 30 minutes and then analyzed for McTN incidence.

MDA-436 cells = experiment: Automated McTN analysis by confocal microscopy; type: cell-based; conditions: at least 10 random cells
Description: FIG. 24. Automated McTN analysis. […] A gradient vector flow snake algorithm was used to define the cell edges and a local curvature maxima effectively identified McTN ends (yellow diamonds). […] This automated cell shape analysis will also enable calculations of average McTN length, curvature, etc. that will yield more multi-dimensional data for McTN studies.

[2] = system: nonmetastatic SkBr3 cells; experiment: McTN scoring in detached SkBr3 cells, confocal microscopy for tubulin localization; type: cell-based, Human; conditions: Jas 500 nM, Taxol 1.2 μM, McTNs scored blindly, 3 expts
Description: FIG. 4. Targeting cell division can increase McTNs. […] (Bars=mean+S.D from 3 expts. with McTNs scored blindly).
Genetic alterations and chemotherapies that stabilize tubulin can increase McTNs. Actin-disrupting drugs, such as jasplakinolide (Jas) are currently being developed as therapies to reduce tumor cell division and migration (Takeuchi H, Ara G, Sausville E A, Teicher B (1998). Jasplakinolide: interaction with radiation and hyperthermia in human prostate carcinoma and Lewis lung carcinoma. Cancer chemotherapy and pharmacology 42: 491-496). […] Dissemination and growth of cancer cells in metastatic sites. […] We have published that genetic alterations which promote McTNs (FIG. 2B) increase CTC lung retention in living mice (Balzer E M, Whipple R A, Thompson K, Boggs A E, Slovic J, Cho E H et al (2010). c-Src differentially regulates the functions of microtentacles and invadopodia. Oncogene 29: 6402-6408; Matrone M A, Whipple R A, Thompson K, Cho E H, Vitolo M I, Balzer E M et al (2010). Metastatic breast tumors express increased tau, which promotes microtentacle formation and the reattachment of detached breast tumor cells. Oncogene 29: 3217-3227).

Row | Compound | Predicted stemness & McTN effect [1] | Predicted stemness & McTN effect (patient-derived cells) | other results
1 | COc1cc2c(c(OC)c1OC)-c1ccc(OC)c(=O)cc1[C@@H](NC(C)=O)CC2 [Colchicine] | Decrease | Decrease | average number of McTNs per cell (MDA-436 cells; colchicine 50 μM vs vehicle 0.1% DMSO): significantly reduces the average number of McTNs per cell
2 | CN(C)S(=O)(=O)c1ccc2c(c1)/C(=C/c1cc3c([nH]1)CCCC3)C(=O)N2 [SU6656] |  | Increase | 
3 | C=C1C(=O)O[C@@H]2/C=C(\C)CC/C=C(\C)CC[C@@H]12 [Costunolide] |  | Decrease | 
4 | COc1cc(/C=C/C(=O)CC(=O)/C=C/c2ccc(O)c(OC)c2)ccc1O [Curcumin] | Decrease |  | 
5 | C[C@@H](N)[C@H]1CC[C@H](C(=O)Nc2ccncc2)CC1 [Y-27632] |  | Increase | 
6 | C/C(=C\c1csc(C)n1)[C@@H]1C[C@@H]2O[C@]2(C)CCC[C@H](C)[C@H](O)[C@@H](C)C(=O)C(C)(C)[C@@H](O)CC(=O)N1 [Ixabepilone] | Increase | Increase | 
7 | C/C1=C\[C@H](C)C[C@H](C)OC(=O)C[C@H](c2ccc(O)cc2)NC(=O)[C@@H](Cc2c(Br)[nH]c3ccccc23)N(C)C(=O)[C@H](C)NC(=O)[C@@H](C)C1 [Jazplakinolide, Jasplakinolide] |  | Decrease | levels of McTNs [2]: strongly promote McTNs; levels of McTNs ([2]; listed as Jas): increases levels of McTNs dramatically
8 | CC(=O)O[C@H]1C(=O)[C@@]2(C)[C@H]([C@H](OC(=O)c3ccccc3)[C@]3(O)C[C@H](OC(=O)[C@H](O)[C@@H](NC(=O)c4ccccc4)c4ccccc4)C(C)=C1C3(C)C)[C@]1(OC(C)=O)CO[C@@H]1C[C@@H]2O [Paclitaxel] | Increase | Increase | levels of McTNs [2]: strongly promote McTNs; levels of McTNs ([2]; listed as Paclitaxel-Taxol): increases levels of McTNs dramatically; average number of McTNs per cell (MDA-436 cells; paclitaxel 1 μM vs vehicle 0.1% DMSO): increases McTNs, but this does not reach significance
9 | O=S(=O)(c1cccc2cnccc12)N1CCCNCC1 [Fasudil] |  | Increase | 
10 | CC(=O)O[C@@]12CO[C@@H]1C[C@H](O)[C@@]1(C)C(=O)[C@H](O)C3=C(C)[C@@H](OC(=O)[C@H](O)[C@@H](NC(=O)OC(C)(C)C)c4ccccc4)C[C@@](O)([C@@H](OC(=O)c4ccccc4)[C@H]21)C3(C)C [Docetaxel] |  | Increase | 
11 | CC[C@]1(O)C[C@@H]2CN(CCc3c([nH]c4ccccc34)[C@@](C(=O)OC)(c3cc4c(cc3OC)N(C)[C@H]3[C@@](O)(C(=O)OC)[C@H](OC(C)=O)[C@]5(CC)C=CCN6CC[C@]43[C@@H]65)C2)C1 [Vinblastine] | Decrease | Decrease | 
12 | O=S(=O)(c1cccc2c(I)cccc12)N1CCCNCC1 [ML-7] |  | Decrease | 
